Values quoted from earlier work in patent publication US20060258633A1, “Amorphous tegaserod maleate” (priority 2005, published 2006).

Conditions: white to off-white crystalline powder

solubility in ethanol (ethanol): slightly soluble | solubility in water (water): very slightly soluble
Structure (SMILES): CCCCCNC(=N)N/N=C/c1c[nH]c2ccc(OC)cc12.O=C(O)/C=C\C(=O)O [Tegaserod maleate, 3-(5-methoxy-1H-indole-3-ylmethylene)-N-pentylcarbazimidamide hydrogen meleate]
